Measured values as given in ChEMBL document CHEMBL2021774, “Rapid development of piperidine carboxamides as potent and selective anaplastic lymphoma kinase inhibitors” (J Med Chem, 2012).
pIC50: −log10 of the molar value.

How the values were obtained:
[1] = biological target: Insulin-like growth factor 1 receptor (Homo sapiens, UniProt P08069)
[2] = biological target: T1, ALK tyrosine kinase receptor (Homo sapiens, UniProt Q9UM73)
[3] = biological target: T1, ALK tyrosine kinase receptor; remark: listed apart in the source
Description: Inhibition of ALK phosphorylation in human Karpas-299 cells after 1 hr

T1 sequence (Q9UM73 whole entry): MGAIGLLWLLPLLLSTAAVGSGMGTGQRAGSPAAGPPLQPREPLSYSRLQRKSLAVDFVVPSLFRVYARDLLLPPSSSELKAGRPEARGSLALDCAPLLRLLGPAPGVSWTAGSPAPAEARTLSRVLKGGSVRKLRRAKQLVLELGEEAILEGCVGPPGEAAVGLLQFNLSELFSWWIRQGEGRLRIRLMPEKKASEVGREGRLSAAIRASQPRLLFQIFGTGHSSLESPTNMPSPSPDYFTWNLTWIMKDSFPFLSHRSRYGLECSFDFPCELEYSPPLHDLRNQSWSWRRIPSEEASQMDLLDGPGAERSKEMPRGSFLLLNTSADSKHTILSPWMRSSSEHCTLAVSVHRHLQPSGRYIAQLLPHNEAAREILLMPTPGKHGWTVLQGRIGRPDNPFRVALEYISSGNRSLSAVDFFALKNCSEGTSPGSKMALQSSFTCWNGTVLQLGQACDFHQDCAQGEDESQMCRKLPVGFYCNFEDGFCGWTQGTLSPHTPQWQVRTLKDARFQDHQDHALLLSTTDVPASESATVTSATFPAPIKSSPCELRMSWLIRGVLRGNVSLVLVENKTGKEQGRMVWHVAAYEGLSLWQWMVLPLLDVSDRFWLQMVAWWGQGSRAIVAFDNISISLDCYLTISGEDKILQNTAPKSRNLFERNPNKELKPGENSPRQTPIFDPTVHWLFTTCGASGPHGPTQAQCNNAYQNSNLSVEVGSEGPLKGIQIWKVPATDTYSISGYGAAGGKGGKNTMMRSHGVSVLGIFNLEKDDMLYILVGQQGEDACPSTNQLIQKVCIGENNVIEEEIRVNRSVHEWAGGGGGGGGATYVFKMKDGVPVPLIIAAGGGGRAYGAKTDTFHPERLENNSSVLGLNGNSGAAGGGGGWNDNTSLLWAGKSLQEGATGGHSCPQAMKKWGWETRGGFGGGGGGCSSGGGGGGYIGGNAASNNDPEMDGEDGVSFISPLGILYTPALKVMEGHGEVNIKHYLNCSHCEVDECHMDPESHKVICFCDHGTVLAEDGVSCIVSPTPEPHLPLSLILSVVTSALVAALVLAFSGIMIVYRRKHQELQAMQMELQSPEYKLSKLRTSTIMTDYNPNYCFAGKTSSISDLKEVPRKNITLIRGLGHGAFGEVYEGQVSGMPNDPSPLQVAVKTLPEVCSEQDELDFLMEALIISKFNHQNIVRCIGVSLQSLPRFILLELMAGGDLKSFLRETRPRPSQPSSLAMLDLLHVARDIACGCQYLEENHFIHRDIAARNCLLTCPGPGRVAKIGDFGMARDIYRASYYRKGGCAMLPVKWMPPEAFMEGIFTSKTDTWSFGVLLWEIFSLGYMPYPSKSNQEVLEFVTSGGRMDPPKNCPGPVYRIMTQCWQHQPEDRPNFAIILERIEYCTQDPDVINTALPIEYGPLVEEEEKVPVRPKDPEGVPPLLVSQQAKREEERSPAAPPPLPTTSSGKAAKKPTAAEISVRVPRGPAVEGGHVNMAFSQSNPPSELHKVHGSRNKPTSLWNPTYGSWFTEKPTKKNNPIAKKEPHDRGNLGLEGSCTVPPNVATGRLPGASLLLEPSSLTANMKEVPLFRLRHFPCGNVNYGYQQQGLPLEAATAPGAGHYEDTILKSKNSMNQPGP
Insulin-like growth factor 1 receptor, sequence (P08069 31-736 limits assumed): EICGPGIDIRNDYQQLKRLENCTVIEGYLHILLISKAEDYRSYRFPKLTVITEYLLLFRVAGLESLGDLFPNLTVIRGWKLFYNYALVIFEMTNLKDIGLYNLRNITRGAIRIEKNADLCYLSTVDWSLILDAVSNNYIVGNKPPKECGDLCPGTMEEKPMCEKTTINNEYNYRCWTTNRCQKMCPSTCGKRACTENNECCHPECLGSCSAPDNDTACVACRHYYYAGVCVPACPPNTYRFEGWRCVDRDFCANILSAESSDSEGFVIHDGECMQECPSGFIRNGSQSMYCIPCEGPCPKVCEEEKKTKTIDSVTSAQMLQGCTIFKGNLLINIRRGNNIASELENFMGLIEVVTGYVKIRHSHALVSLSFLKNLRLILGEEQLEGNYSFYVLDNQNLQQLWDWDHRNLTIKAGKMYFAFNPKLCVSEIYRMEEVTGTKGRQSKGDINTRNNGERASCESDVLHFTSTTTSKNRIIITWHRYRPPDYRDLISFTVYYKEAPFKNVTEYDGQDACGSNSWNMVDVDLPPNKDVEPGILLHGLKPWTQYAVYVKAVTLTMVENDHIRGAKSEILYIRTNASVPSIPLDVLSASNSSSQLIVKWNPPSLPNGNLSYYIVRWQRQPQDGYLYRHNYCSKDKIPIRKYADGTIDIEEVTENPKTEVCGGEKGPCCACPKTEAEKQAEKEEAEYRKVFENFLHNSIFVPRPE
Insulin-like growth factor 1 receptor, sequence (P08069 741-1367 limits assumed): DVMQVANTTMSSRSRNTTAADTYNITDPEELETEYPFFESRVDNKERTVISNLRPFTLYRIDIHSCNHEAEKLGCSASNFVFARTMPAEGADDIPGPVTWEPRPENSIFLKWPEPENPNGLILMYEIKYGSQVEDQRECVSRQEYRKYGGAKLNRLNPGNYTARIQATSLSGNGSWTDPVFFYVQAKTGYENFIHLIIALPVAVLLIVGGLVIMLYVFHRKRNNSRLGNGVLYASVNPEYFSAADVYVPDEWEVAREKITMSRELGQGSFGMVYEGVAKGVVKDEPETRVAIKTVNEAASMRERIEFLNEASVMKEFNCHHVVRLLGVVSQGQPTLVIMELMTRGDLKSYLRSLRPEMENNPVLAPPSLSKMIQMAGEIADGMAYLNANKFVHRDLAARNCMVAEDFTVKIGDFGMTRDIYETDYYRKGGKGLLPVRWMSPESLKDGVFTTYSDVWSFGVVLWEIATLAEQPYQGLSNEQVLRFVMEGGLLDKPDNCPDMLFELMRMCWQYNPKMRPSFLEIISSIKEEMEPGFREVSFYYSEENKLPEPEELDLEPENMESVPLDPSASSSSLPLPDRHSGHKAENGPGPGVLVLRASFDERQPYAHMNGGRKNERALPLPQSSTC

SMILES | pIC50 [1] | pIC50 [2] | pIC50 [3]
CNc1nccc(N2CCC[C@H](C(=O)NCc3ccc(C)cc3)C2)n1 | < 4.60 | < 4.60 | –
Cc1ccc(CNC(=O)[C@H]2CCCN(c3ccnc(NCc4ccccc4)n3)C2)cc1 | < 4.60 | < 4.60 | –
Cc1ccc(CNC(=O)[C@H]2CCCN(c3ccnc(Nc4cccc(Cl)c4)n3)C2)cc1 | < 4.60 | – | –
Cc1ccc(CNC(=O)[C@H]2CCCN(c3ccnc(Nc4ccc(Cl)cc4)n3)C2)cc1 | < 4.60 | 5.20 | –
COc1ccc(Nc2nccc(N3CCC[C@H](C(=O)NCc4ccc(C)cc4)C3)n2)cc1 | < 4.60 | – | –
CCc1cccc(Nc2nccc(N3CCC[C@H](C(=O)NCc4ccc(C)cc4)C3)n2)c1 | < 4.60 | – | –
CCc1ccc(Nc2nccc(N3CCC[C@H](C(=O)NCc4ccc(C)cc4)C3)n2)cc1 | < 4.60 | – | –
Cc1ccc(CNC(=O)[C@H]2CCCN(c3ccnc(Nc4ccc5c(c4)OCCO5)n3)C2)cc1 | < 4.60 | – | –

The remaining lines, values ahead:

pIC50 [1] | pIC50 [2] | pIC50 [3] | SMILES
5.34 | – | – | COc1cc(Nc2nccc(N3CCC[C@H](C(=O)NCc4ccc(C)cc4)C3)n2)cc(OC)c1OC
< 4.60 | – | – | Cc1ccc(CNC(=O)[C@H]2CCCN(c3ccnc(Nc4ccccc4)n3)C2)cc1
< 4.60 | – | – | COc1ccc(Nc2nccc(N3CCC[C@H](C(=O)NCc4ccc(C)cc4)C3)n2)cc1OC
< 4.60 | – | – | COc1cc(Nc2nccc(N3CCC[C@H](C(=O)NCCc4ccccc4)C3)n2)cc(OC)c1OC
– | 5.17 | – | COc1cc(Nc2nccc(N3CCC[C@H](C(=O)NCCCc4ccccc4)C3)n2)cc(OC)c1OC
< 4.60 | 5.53 | – | COc1cc(Nc2nccc(N3CCC[C@H](C(=O)NCc4ccc([N+](=O)[O-])cc4)C3)n2)cc(OC)c1OC
< 4.60 | – | – | COC(=O)c1ccc(CNC(=O)[C@H]2CCCN(c3ccnc(Nc4cc(OC)c(OC)c(OC)c4)n3)C2)cc1
< 4.60 | – | – | COc1cc(Nc2nccc(N3CCC[C@H](C(=O)NCc4ccc(-c5ccccc5)cc4)C3)n2)cc(OC)c1OC
– | 7.51 | 7.55 | COc1cc(Nc2nccc(N3CCC[C@H](C(=O)NCc4cccc(N5CCOCC5)c4)C3)n2)cc(OC)c1OC
< 4.60 | – | – | COc1cc(Nc2nccc(N3CCC[C@@H](C(=O)NCc4ccc(C)cc4)C3)n2)cc(OC)c1OC
